Measurements: patent US20220089578A1, “COMPOUNDS AS GLP-1R AGONISTS” (Terns Pharmaceuticals, Inc., priority 2020, published 2022)

target: human GLP-1R (Homo sapiens, UniProt P43220); assay: GLP-1R Cell Assay 1: cAMP Hunter CHO-K1 GLP1R Gs cell line, HitHunter cAMP assay; format: cell-based; conditions: Table 2; cAMP Hunter CHO-K1 GLP1R Gs cells; percent activity normalized to Exendin-4
Method: GLP-1R mediated agonist activity was determined using the cAMP Hunter CHO-K1 GLP1R Gs cell line (DiscoverX, cat# 95-0062C2), a stable CHO-K1 derived cell lines overexpressing naturally Gs coupled wild-type human GLP-1R (accession number: NM_002062.3). GLP-1R agonism in this cell line was detected by measuring cellular cAMP levels using the HitHunter cAMP assay kit (cat# 90-0075SM2), a homogenous, gain-of-signal competitive immune assay based on Enzyme Fragment Complementation (EFC) technology. In this system cellular cAMP competes with exogenous labeled cAMP (ED-cAMP) for binding to an anti-cAMP antibody. […] The luminescent signal is directly proportional to the amount of cellular cAMP.
For compound testing, cells were seeded in a total volume of 20 μL in white walled, 384-well microplates and incubated at 37° C. prior to compound testing. Prior to compound addition, cell culture media was removed by aspiration and replaced with 15 pt reagent buffer (2:1 HBSS/10 mM HEPES: cAMP XS+Ab reagent). Compounds were dissolved in DSMO and serially diluted (3-fold) prior to final dilution to 4X in assay buffer. Samples (5 μL) were added to cells and incubated at 37° C. for […] prior to 1 hour incubation with 20 pt cAMP XS+ED/CL lysis reagent and 3 hour incubation with 20 μL cAMP XS+EA reagent at room temperature. Microplates were read on a PerkinElmer Envision instrument. Compound activity was analyzed using CBIS data analysis suite (ChemInnovation). Percent activity was calculated based on duplicate assay runs and normalized to the positive control Exendin-4, a GLP-1R peptide agonist, using the following formula: […]
The effective compound concentration resulting in 50% response (EC50) was determined by non-linear regression analysis of dose-response curves.

Sequence of human GLP-1R (P43220 24-463): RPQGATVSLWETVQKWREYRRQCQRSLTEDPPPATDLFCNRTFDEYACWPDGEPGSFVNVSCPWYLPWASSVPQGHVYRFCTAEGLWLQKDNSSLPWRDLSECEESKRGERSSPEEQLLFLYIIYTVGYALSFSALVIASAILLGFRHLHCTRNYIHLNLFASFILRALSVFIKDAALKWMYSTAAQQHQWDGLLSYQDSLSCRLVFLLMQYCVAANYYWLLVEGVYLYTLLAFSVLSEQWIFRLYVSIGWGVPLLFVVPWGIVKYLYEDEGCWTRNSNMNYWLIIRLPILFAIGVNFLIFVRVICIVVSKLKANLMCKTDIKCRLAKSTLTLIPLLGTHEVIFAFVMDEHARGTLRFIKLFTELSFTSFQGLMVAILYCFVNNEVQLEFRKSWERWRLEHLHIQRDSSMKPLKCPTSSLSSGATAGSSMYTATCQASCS

Compound	EC50
N#Cc1ccc(COc2cccc(N3CCC(Cc4nc5ccc(C(=O)O)cc5n4C[C@@H]4CCO4)CC3)n2)c(F)c1 [Compound 15, (S)-2-((1-(6-((4-cyano-2-fluorobenzyl)oxy)pyridin-2-yl)piperidin-4-yl)methyl)-1-(oxetan-2-ylmethyl)-1H-benzo[d]imidazole-6-carboxylic acid]	0.311 nM
N#Cc1cnc(COc2cccc(N3CCN(Cc4nc5ccc(C(=O)O)cc5n4C[C@@H]4CCO4)CC3)n2)nc1 [Compound 16, (S)-2-((4-(6-((5-cyanopyrimidin-2-yl)methoxy)pyridin-2-yl)piperazin-1-yl)methyl)-1-(oxetan-2-ylmethyl)-1H-benzo[d]imidazole-6-carboxylic acid]	9.24 nM
O=C(O)c1ccc2nc(CN3CCC(O)(c4cccc(OCc5ccccc5)n4)CC3)n(C[C@@H]3CCO3)c2c1 [Compound 18, (S)-2-((4-(6-(benzyloxy)pyridin-2-yl)-4-hydroxypiperidin-1-yl)methyl)-1-(oxetan-2-ylmethyl)-1H-benzo[d]imidazole-6-carboxylic acid]	> 500 nM
O=C(O)c1ccc2nc(CN3CCC(n4nc(OCc5ccccc5)c5c4CCCC5)CC3)n(C[C@@H]3CCO3)c2c1 [Compound 23, (S)-2-((4-(3-(benzyloxy)-4,5,6,7-tetrahydro-1H-indazol-1-yl)piperidin-1-yl)methyl)-1-(oxetan-2-ylmethyl)-1H-benzo[d]imidazole-6-carboxylic acid]	> 500 nM
Cc1cn(C2CCN(Cc3nc4ccc(C(=O)O)cc4n3C[C@@H]3CCO3)CC2)nc1OCc1ccccc1 [Compound 24, (S)-2-((4-(3-(benzyloxy)-4-methyl-1H-pyrazol-1-yl)piperidin-1-yl)methyl)-1-(oxetan-2-ylmethyl)-1H-benzo[d]imidazole-6-carboxylic acid]	350 nM
N#Cc1ccc2c(c1)CN(c1ccn(C3CCN(Cc4nc5ccc(C(=O)O)cc5n4C[C@@H]4CCO4)CC3)n1)CC2 [Compound 25, (S)-2-((4-(3-(7-cyano-3,4-dihydroisoquinolin-2(1H)-yl)-1H-pyrazol-1-yl)piperidin-1-yl)methyl)-1-(oxetan-2-ylmethyl)-1H-benzo[d]imidazole-6-carboxylic acid]	> 500 nM
O=C(O)c1ccc2nc(CN3CCC(n4ccc(COc5ccccc5)n4)CC3)n(C[C@@H]3CCO3)c2c1 [Compound 26-P1, (S)-1-(oxetan-2-ylmethyl)-2-((4-(3-(phenoxymethyl)-1H-pyrazol-1-yl)piperidin-1-yl)methyl)-1H-benzo[d]imidazole-6-carboxylic acid]	> 500 nM
O=C(O)c1ccc2nc(CN3CCN(c4ccc5cnn(Cc6ccccc6)c5n4)CC3)n(C[C@@H]3CCO3)c2c1 [Compound 27, (S)-2-((4-(1-benzyl-1H-pyrazolo[3,4-b]pyridin-6-yl)piperazin-1-yl)methyl)-1-(oxetan-2-ylmethyl)-1H-benzo[d]imidazole-6-carboxylic acid]	232 nM
N#Cc1ccc(Cn2ccc3ccc(N4CCN(Cc5nc6ccc(C(=O)O)cc6n5C[C@@H]5CCO5)CC4)nc32)c(F)c1 [Compound 29, (S)-2-((4-(1-(4-cyano-2-fluorobenzyl)-1H-pyrrolo[2,3-b]pyridin-6-yl)piperazin-1-yl)methyl)-1-(oxetan-2-ylmethyl)-1H-benzo[d]imidazole-6-carboxylic acid]	16.1 nM
N#Cc1ccc(Cn2ncc3ccc(N4CCN(Cc5nc6ccc(C(=O)O)cc6n5C[C@@H]5CCO5)CC4)nc32)c(F)c1 [Compound 30, (S)-2-((4-(1-(4-cyano-2-fluorobenzyl)-1H-pyrazolo[3,4-b]pyridin-6-yl)piperazin-1-yl)methyl)-1-(oxetan-2-ylmethyl)-1H-benzo[d]imidazole-6-carboxylic acid]	16.3 nM
O=C(O)c1ccc2nc(CN3CCN(c4cccc(OCC5CCOCC5)n4)CC3)n(C[C@@H]3CCO3)c2c1 [Compound 33, (S)-1-(oxetan-2-ylmethyl)-2-((4-(6-((tetrahydro-2H-pyran-4-yl)methoxy)pyridin-2-yl)piperazin-1-yl)methyl)-1H-benzo[d]imidazole-6-carboxylic acid]	> 500 nM
CC1(COc2cccc(N3CCN(Cc4nc5ccc(C(=O)O)cc5n4C[C@@H]4CCO4)CC3)n2)CC(F)(F)C1 [Compound 34, (S)-2-((4-(6-((3,3-difluoro-1-methylcyclobutyl)methoxy)pyridin-2-yl)piperazin-1-yl)methyl)-1-(oxetan-2-ylmethyl)-1H-benzo[d]imidazole-6-carboxylic acid]	333 nM
O=C(O)c1ccc2nc(CN3CCN(c4cccc(OCCC5COC5)n4)CC3)n(C[C@@H]3CCO3)c2c1 [Compound 35, (S)-1-(oxetan-2-ylmethyl)-2-((4-(6-(2-(oxetan-3-yl)ethoxy)pyridin-2-yl)piperazin-1-yl)methyl)-1H-benzo[d]imidazole-6-carboxylic acid]	> 500 nM
O=C(O)c1ccc2nc(CN3CCN(c4cccc(OCC5CCC(F)(F)CC5)n4)CC3)n(C[C@@H]3CCO3)c2c1 [Compound 36, (S)-2-((4-(6-((4,4-difluorocyclohexyl)methoxy)pyridin-2-yl)piperazin-1-yl)methyl)-1-(oxetan-2-ylmethyl)-1H-benzo[d]imidazole-6-carboxylic acid]	36.4 nM
CN1CCC(COc2cccc(N3CCN(Cc4nc5ccc(C(=O)O)cc5n4C[C@@H]4CCO4)CC3)n2)CC1 [Compound 37, (S)-2-((4-(6-((1-methylpiperidin-4-yl)methoxy)pyridin-2-yl)piperazin-1-yl)methyl)-1-(oxetan-2-ylmethyl)-1H-benzo[d]imidazole-6-carboxylic acid]	> 500 nM
CC(=O)N1CCC(COc2cccc(N3CCN(Cc4nc5ccc(C(=O)O)cc5n4C[C@@H]4CCO4)CC3)n2)CC1 [Compound 38, (S)-2-((4-(6-((1-acetylpiperidin-4-yl)methoxy)pyridin-2-yl)piperazin-1-yl)methyl)-1-(oxetan-2-ylmethyl)-1H-benzo[d]imidazole-6-carboxylic acid]	> 500 nM

More lines, now with the values ahead:

EC50	Compound
0.246 nM	O=C(O)c1ccc2nc(CN3CCC(c4cccc(OCc5nc6ccccc6s5)n4)CC3)n(C[C@@H]3CCO3)c2c1 [Compound 14, (S)-2-((4-(6-(benzo[d]thiazol-2-ylmethoxy)pyridin-2-yl)piperidin-1-yl)methyl)-1-(oxetan-2-ylmethyl)-1H-benzo[d]imidazole-6-carboxylic acid]
23 nM	O=C(O)c1ccc2nc(CN3CC(=O)N(c4cccc(OCc5ccccc5)n4)CC3=O)n(C[C@@H]3CCO3)c2c1 [Compound 17, (S)-2-((4-(6-(benzyloxy)pyridin-2-yl)-2,5-dioxopiperazin-1-yl)methyl)-1-(oxetan-2-ylmethyl)-1H-benzo[d]imidazole-6-carboxylic acid]
41.2 nM	O=C(O)c1ccc2nc(CN3CCN(c4cccc(OCc5ccccc5)n4)C(=O)C3)n(C[C@@H]3CCO3)c2c1 [Compound 19, (S)-2-((4-(6-(benzyloxy)pyridin-2-yl)-3-oxopiperazin-1-yl)methyl)-1-(oxetan-2-ylmethyl)-1H-benzo[d]imidazole-6-carboxylic acid]
2770 nM	Cc1cc(OCc2ccccc2)nn1C1CCN(Cc2nc3ccc(C(=O)O)cc3n2C[C@@H]2CCO2)CC1 [Compound 21, (S)-2-((4-(3-(benzyloxy)-5-methyl-1H-pyrazol-1-yl)piperidin-1-yl)methyl)-1-(oxetan-2-ylmethyl)-1H-benzo[d]imidazole-6-carboxylic acid]
3740 nM	O=C(O)c1ccc2nc(CN3CCC(n4ccc(OCc5ccccc5)n4)CC3)n(C[C@@H]3CCO3)c2c1 [Compound 22, (S)-2-((4-(3-(benzyloxy)-1H-pyrazol-1-yl)piperidin-1-yl)methyl)-1-(oxetan-2-ylmethyl)-1H-benzo[d]imidazole-6-carboxylic acid]
> 500 nM	O=C(O)c1ccc2nc(CN3CCN(c4ccc5ncn(Cc6ccccc6)c5n4)CC3)n(C[C@@H]3CCO3)c2c1 [Compound 28, (S)-2-((4-(3-benzyl-3H-imidazo[4,5-b]pyridin-5-yl)piperazin-1-yl)methyl)-1-(oxetan-2-ylmethyl)-1H-benzo[d]imidazole-6-carboxylic acid]
> 500 nM	O=C(O)c1ccc2nc(CN3CCN(c4ccc5cn(Cc6ccccc6)nc5n4)CC3)n(C[C@@H]3CCO3)c2c1 [Compound 31, (S)-2-((4-(2-benzyl-2H-pyrazolo[3,4-b]pyridin-6-yl)piperazin-1-yl)methyl)-1-(oxetan-2-ylmethyl)-1H-benzo[d]imidazole-6-carboxylic acid]
> 500 nM	O=C(O)c1ccc2nc(CN3CCN(c4nc(OCc5ccccc5)ns4)CC3)n(C[C@@H]3CCO3)c2c1 [Compound 32, (S)-2-((4-(3-(benzyloxy)-1,2,4-thiadiazol-5-yl)piperazin-1-yl)methyl)-1-(oxetan-2-ylmethyl)-1H-benzo[d]imidazole-6-carboxylic acid]
420 nM	O=C(O)c1ccc2nc(CN3CCN(c4cccc(OC5CN(c6ccccc6)C5)n4)CC3)n(C[C@@H]3CCO3)c2c1 [Compound 39, (S)-1-(oxetan-2-ylmethyl)-2-((4-(6-((1-phenylazetidin-3-yl)oxy)pyridin-2-yl)piperazin-1-yl)methyl)-1H-benzo[d]imidazole-6-carboxylic acid]
